For ten compounds, EC50 results are on record in US20250042882A1, “CERTAIN 3-AZABICYCLO[3.1.0]HEXANES AS GLP-1 RECEPTOR MODULATORS” (AstraZeneca AB, priority 2021, published 2025).

For one assay, the target named is T1, GLP-1R (Homo sapiens, UniProt P43220).
T1 construct: host or cells: EndoC-βH1 human pancreatic beta cell line
Nature of the assay: EndoC cAMP Accumulation Assay. The settings on record: EndoC-βH1 human pancreatic β cell line; HTRF cAMP accumulation. The assay is classed as cell-based. An excerpt:
EndoC cAMP Accumulation Assay
A HTRF cAMP assay (cAMP Gs dynamic kit; CisoBio Cat #62AM4PEJ) was used to identify agonists of GLP-1R in a pancreatic insulinoma cell line (EndoC-⊕H1). […] EndoC-PHlcells have detectable GLP-1R messenger ribonucleic acid (mRNA) as detected by quantitative polymerase chain reaction (qPCR). […] The EndoC-PH1 cell line is a valid model of human beta cells and applicable for screenings to identify novel drug target candidates (Mol. Metab., 2018, 8, 144-157). CisBio HTRF cAMP kits are based on a competitive immunoassay using cryptate-labelled anti-cAMP antibody and d2-labeled cAMP. The detection kit is intended for the direct quantitative determination of cAMP. The specific signal (i.e. energy transfer) is inversely proportional to the concentration of cAMP in the standard or sample. Test compounds (10 mM in DMSO) were diluted into assay buffer (HBSS (Sigma #H8264) supplemented with 25 mM HEPES (Gibco #15630, pH 7.4), 0.1% BSA (Sigma #A3059) and 0.5 mM IBMX (Sigma #I7018) included fresh on the day of the assay) into 96 well U-bottom plates (Greiner #650201). Diluted compounds were transferred to ECHO source polypropylene plates (Labcyte #P-05525) and dose response curves were dispensed acoustically using ECHO 550 into black shallow-well u-bottom 384-well HTRF Assay Plates (Corning 4514).
Cryovials of EndoC-H1 (supplied at 1×10e^7 cells/vial) were used directly for screening. The cryovials and were removed from N2(l) and thawed rapidly in a 37° C. water bath. The cells were resuspended in assay buffer and centrifuged at 300 g for 5 min. Cells were resuspended in assay buffer at the appropriate concentration, typically at 12e5 cells per mL (3000 cells per well, dependent on cell batch) and 2.5 μL diluted cells were added to all wells of destination plate by Multidrop combi reagent dispenser (Thermofisher). The plates were incubated at rt for 30 min. The assay was stopped by adding 2.5 μL anti-cAMP cryptate solution to all wells and 2.5 μL cAMP-d2 solution (both diluted 1:20 in lysis buffer) to columns 1-22 by Combi drop. A volume of 2.5 μL cAMP-d2 solution was added to wells E23 to P24 and 2.5 μL lysis buffer added to wells A23 to D24 by multichannel pipette. The plates were incubated at rt for 1 h and read on an Envision plate reader using excitation wavelength of 320 mn and emission of 590 nm and 660 nm.
Raw data from Envision is converted to % DeltaF according to the manufacturer's instructions. Dose response curves are analysed via 4-Parameter Logistical Analysis and assay plate Z′ values obtained. Samples are graphed as percentage (%) activation plots compared to GIP (1-42, Bachem H-5645) with assay window defined by negative control as basal cell cAMP levels and positive control are defined by maximum GIP (82.5 nM) signal. GLP-1 (7-36 amide, Bachem H-6795) dose response curve was included on all plates.
On the technique in general: TR-FRET usually uses a lanthanide donor and a delayed reading to cut background.

The next assay concerns the target T2, human GLP-1R receptor (Homo sapiens, UniProt P43220, L260F).
T2 construct: expressed in transfected cells; host or cells: CHO-K1 (ATCC CCL-61)
As to the kind of experiment: CHOK1 GLP-1R cAMP Assay. As to conditions: CHO-K1 cell line stably expressing human GLP-1R (Leu260Phe variant); HTRF cAMP; agonist activity. The assay is classed as cell-based. Here is the method: A cell line stably expressing the human GLP-1R receptor (NM_002062.5, including the naturally-occurring variant Leu260Phe) in a CHO-K1 (ATCC® CCL-61™) was used for assay.
GLP-1 receptor mediated agonist activity was determined in a cell-based assay measuring cyclic adenosine monophosphate (cAMP) levels in cells using Homogeneous Time-Resolved Fluorescence (HTRF) cAMP detection kit (CisBio catalog #62AM4PEC, cAMP Gs Dynamic range kit). The cAMP detection method is based on a competitive immunoassay, in which cAMP produced by the cells and cAMP labeled with the dye d2 compete for binding to a Europium-Cryptate-labeled anti-cAMP antibody. The specific HTRF signal is inversely proportional to the concentration of cAMP.
Compounds were added to individual well in 384 well-assay plates (Greiner #784076) using an Echo (LabCyte) dispenser from 10 mM stocks. Varying concentration of compounds were added to wells, and DMSO was used to normalize each well to a volume of 100 nL. A dose response curve of GLP-1(7-36)NH2 (Bachem H-6795) was included in each run. 5 μL of cAMP concentration response standards are applied in specified wells in the assay plates. Cryo-preserved cells are thawed and resuspended in assay buffer pre-heated to 37° C. (20 mM HEPES pH 7.4, 1× Hank's Balanced Salt Solution (HBSS, Life Technologies #14065) supplemented with 0.1% (w/v) bovine serum albumin (Sigma, A-7030). Cells were centrifuged at 250*g for 5 min at rt, and resuspended in room tempered assay buffer to a final density of 0.16*10^6 cell/mL, to deliver 800 cells/well. 5 μL of assay buffer with 1 mM 3-isobutyl-1-methylxanthin (IBMX; Sigma cat I-7018) was dispensed per well in assay plates using a multidrop combi (Thermo Scientific) subsequently 5 μL of cell suspension was distributed to relevant wells in the assay using a multidrop dispenser. Assay plates were incubated 20 min at rt.
Detection reagents, Europium-Cryptate-labeled anti-cAMP antibody and cAMP labeled with the dye d2, are diluted in lysis buffer, provided by the manufacturer. 5 μL of each detection reagent is supplemented to each assay well using a multidrop dispenser. Assay plates are incubated in the dark for at least one h. The HTRF signal is measured using the HTRF module (excitation: 337 nm, emission A: 665 nm and emission B: 620 nm) in Pherastar FSX (BMG Labtech).
Raw data were converted to pM cAMP using the cAMP standard curve included in each run.
Converted data were further analyzed in Genedata Screener (Genedata) and EC50 determinations were made from agonist dose-response curves analyzed with a curve fitting program using a 4-parameter logistic dose response equation (Equation y=A+((B−A)/1+((C/x)^D))) where A is no stimulation, B is full stimulation, C is the EC50 and D is the Hill slope). The percent effect was determined relative to a saturating concentration of a full GLP-1R agonist (GLP-1(7-36)NH2 has 100% effect in this assay setup).

pEC50: −log10 of the molar value.

T1 sequence (P43220 24-463): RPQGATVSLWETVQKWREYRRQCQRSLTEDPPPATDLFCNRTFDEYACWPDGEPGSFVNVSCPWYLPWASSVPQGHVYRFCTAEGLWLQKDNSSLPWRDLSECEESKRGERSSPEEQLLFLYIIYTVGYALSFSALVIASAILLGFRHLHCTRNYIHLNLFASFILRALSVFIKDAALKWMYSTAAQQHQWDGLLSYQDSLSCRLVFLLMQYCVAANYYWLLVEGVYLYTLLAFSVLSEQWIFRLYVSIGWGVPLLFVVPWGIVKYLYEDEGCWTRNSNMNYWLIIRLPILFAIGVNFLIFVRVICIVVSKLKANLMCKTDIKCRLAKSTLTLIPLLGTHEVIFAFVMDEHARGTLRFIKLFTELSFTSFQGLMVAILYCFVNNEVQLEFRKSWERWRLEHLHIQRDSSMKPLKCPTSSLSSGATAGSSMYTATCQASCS
T2 sequence (P43220 24-463 L260F): as the sequence (P43220 24-463) above, with L237F counted along it

Consider `C[C@@]1(c2ccc(Cl)cn2)Oc2cccc([C@H]3[C@@H]4CN(Cc5nc6c(Cl)cc(C(=O)O)cc6n5CC5CCO5)C[C@@H]43)c2O1` (relative stereo) [Example 5, 4-Chloro-2-(((1R,5S,6R)-6-((R*)-2-(5-chloropyridin-2-yl)-2-methylbenzo[d][1,3]dioxol-4-yl)-3-azabicyclo[3.1.0]hexan-3-yl)methyl)-1-(((S)-oxetan-2-yl)methyl)-1H-benzo[d]imidazole-6-carboxylic acid], for which the pEC50 (as a rule, the EC50 on a negative log10 scale, so that one unit is a factor of ten) is 7.80 at GLP-1R and 7.62 on human GLP-1R receptor.

`CCn1cncc1Cn1c(CN2C[C@@H]3[C@H](C2)[C@H]3c2cccc3c2O[C@](C)(c2ccc(Cl)cn2)O3)nc2c(F)cc(C(=O)O)cc21` (relative stereo) [Example 14, 2-((1R,5S,6s)-6-(R*)-2-(5-Chloropyridin-2-yl)-2-methylbenzo[d][1,3]dioxol-4-yl)-3-azabicyclo[3.1.0]hexan-3-yl)methyl)-1-((1-ethyl-1H-imidazol-5-yl)methyl)-4-fluoro-1H-benzo[d]imidazole-6-carboxylic acid]: the results for the pEC50 at GLP-1R and on human GLP-1R receptor were 8.23 and 7.59, respectively.

On to `CCn1cncc1Cn1c(CN2C[C@@H]3[C@H](C2)[C@H]3c2cccc3c2O[C@](C)(c2ccc(Cl)cc2F)O3)nc2c(F)cc(C(=O)O)cc21` (relative stereo) [Example 15, 2-((1R,5S,6s)-6-((R*)-2-(4-Chloro-2-fluorophenyl)-2-methylbenzo[d][1,3]dioxol-4-yl)-3-azabicyclo[3.1.0]hexan-3-yl)methyl)-1-((1-ethyl-1H-imidazol-5-yl)methyl)-4-fluoro-1H-benzo[d]imidazole-6-carboxylic acid], for which the pEC50 at GLP-1R is 8.52; on human GLP-1R receptor, 8.07.

Turning to `CC1(c2ccc(Cl)cc2F)Oc2cccc([C@H]3[C@@H]4CN(Cc5nc6ccc(C(=O)O)cc6n5CC5CCO5)C[C@@H]43)c2O1` (stereo partly drawn) [Example 1, 2-(((1R,5S,6R)-6-(2-(4-Chloro-2-fluorophenyl)-2-methylbenzo[d][1,3]dioxol-4-yl)-3-azabicyclo[3.1.0]hexan-3-yl)methyl)-1-(((S)-oxetan-2-yl)methyl)-1H-benzo[d]imidazole-6-carboxylic acid], the pEC50 on GLP-1R is 7.16; on human GLP-1R receptor, 6.74.

Regarding `COc1cc(C(=O)O)cc2c1nc(CN1C[C@@H]3[C@H](C1)[C@H]3c1cccc3c1O[C@](C)(c1ccc(Cl)cn1)O3)n2CC1CCO1` (single isomer, unassigned) [Example 4a, 2-(((1R,5S,6R)-6-((R*)-2-(5-Chloropyridin-2-yl)-2-methylbenzo[d][1,3]dioxol-4-yl)-3-azabicyclo[3.1.0]hexan-3-yl)methyl)-4-methoxy-1-(((S)-oxetan-2-yl)methyl)-1H-benzo[d]imidazole-6-carboxylic acid], the pEC50 is 6.46 on GLP-1R and 6.55 on human GLP-1R receptor.

On to `C[C@@]1(c2ccc(Cl)cn2)Oc2cccc([C@H]3[C@@H]4CN(Cc5nc6c(F)cc(C(=O)O)cc6n5CCn5cccn5)C[C@@H]43)c2O1` (single isomer, unassigned) [Example 7, 1-(2-(1H-Pyrazol-1-yl)ethyl)-2-(((1R,5S,6s)-6-((R*)-2-(5-chloropyridin-2-yl)-2-methylbenzo[d][1,3]dioxol-4-yl)-3-azabicyclo[3.1.0]hexan-3-yl)methyl)-4-fluoro-1H-benzo[d]imidazole-6-carboxylic acid], for which the pEC50 on GLP-1R is 6.82; on human GLP-1R receptor, 6.59.

Consider `C[C@@]1(c2ccc(C#N)cc2F)Oc2cccc([C@H]3[C@@H]4CN(Cc5nc6c(F)cc(C(=O)O)cc6n5C[C@@H]5CCO5)C[C@@H]43)c2O1` (relative stereo) [Example 11, 2-((1R,5S,6R)-6-((R*)-2-(4-Cyano-2-fluorophenyl)-2-methylbenzo[d][1,3]dioxol-4-yl)-3-azabicyclo[3.1.0]hexan-3-yl)methyl)-4-fluoro-1-(((S)-oxetan-2-yl)methyl)-1H-benzo[d]imidazole-6-carboxylic acid], for which the pEC50 at GLP-1R is 7.24; at human GLP-1R receptor it was 7.21.

Turning to `CCn1cncc1Cn1c(CN2C[C@@H]3[C@H](C2)[C@H]3c2cccc3c2O[C@](C)(c2ccc(Cl)cn2)O3)nc2c(OC)cc(C(=O)O)cc21` (relative stereo) [Example 13, 2-((1R,5S,6s)-6-(R*)-2-(5-Chloropyridin-2-yl)-2-methylbenzo[d][1,3]dioxol-4-yl)-3-azabicyclo[3.1.0]hexan-3-yl)methyl)-1-((1-ethyl-1H-imidazol-5-yl)methyl)-4-methoxy-1H-benzo[d]imidazole-6-carboxylic acid], the figures for the pEC50 on GLP-1R and at human GLP-1R receptor were 8.39 and 8.09, respectively.

With `COc1cc(C(=O)O)cc2c1nc(CN1C[C@@H]3[C@H](C1)[C@H]3c1c(F)ccc3c1OC(C)(c1ccc(Cl)cn1)O3)n2C[C@@H]1CCO1` (stereo partly drawn) [Example 6, 2-(((1R,5S,6R)-6-(2-(5-Chloropyridin-2-yl)-5-fluoro-2-methylbenzo[d][1,3]dioxol-4-yl)-3-azabicyclo[3.1.0]hexan-3-yl)methyl)-4-methoxy-1-(((S)-oxetan-2-yl)methyl)-1H-benzo[d]imidazole-6-carboxylic acid], the figures for the pEC50 at GLP-1R and on human GLP-1R receptor were 7.72 and 7.51, respectively.

Turning to `COc1cc(C(=O)O)cc2c1nc(CN1C[C@@H]3[C@H](C1)[C@H]3c1cccc3c1O[C@](C)(c1ccc(Cl)cn1)O3)n2CC1CCO1` (single isomer, unassigned) [Example 4b, 2-(((1R,5S6R)-6-((R*)-2-(5-Chloropyridin-2-yl)-2-methylbenzo[d][1,3]dioxol-4-yl)-3-azabicyclo[3.1.0]hexan-3-yl)methyl)-4-methoxy-1-(((S)-oxetan-2-yl)methyl)-1H-benzo[d]imidazole-6-carboxylic acid], the pEC50 is 7.85 at GLP-1R and 7.21 at human GLP-1R receptor.
